US11905268B2, “Anthranilic acid derivatives and their use in the treatment of human cancers” (UNIVERSITY OF CENTRAL FLORIDA RESEARCH FOUNDATION, INC., priority 2018, dated 2024)
Read-outs that look alike come from different tables or passages of the source.

Experiments:
[1] = tested on: DFMO treated Chinese hamster ovary (CHO) cells; assay: DFMO/spermidine rescue assay in CHO cells (Assay 2); type: cell-based
Protocol: In the reconfirmation assay compounds were run in quadruplicate. […] A PTI compound is expected to block the entry or disrupt the intracellular trafficking of spermidine and inhibit the ability of spermidine to rescue the growth or viability of DFMO treated cells.
DFMO/Spermidine assay Here cells were treated with an inhibitor of polyamine biosynthesis (DFMO) and rescued back to high viability by the presence of exogenous polyamine (spermidine). Putative PTI compounds were screened for their ability to block the entry or intracellular trafficking of exogenous spermidine (or otherwise disrupt the intracellular trafficking of spermidine) by measuring cell viability in the presence of DFMO+spermidine+PTI compound. […] This was followed by adding 10 μL of […] and 5 μM spermidine (FAC 5 mM DFMO and 1 μM spermidine) in assay medium with a Beckman BioRAPTR FRD dispenser or 10 μL of 5 mM DFMO added in assay medium (positive control). […] A PTI compound is expected to block the entry or disrupt the intracellular trafficking of spermidine and inhibit the ability of spermidine to rescue the growth or viability of DFMO treated cells Cytotoxicity

CHO cells [2] = assay: Ant44 rescue assay in CHO cells (Assay 1); type: cell-based, Chinese hamster; details: for IC50 / EC50: Cricetulus griseus; for IC50: Table 7, read-out: SAR IC50 Ant44 assay
Protocol: CHO K1 cells were grown in growth medium (RPMI+10% FBS+1×P/S+1% l-glutamine) to 70% confluency, washed in PBS and trypsinized. Cells were plated in assay medium (serum free RPMI+2% FBS+1×l-glutamine+1×P/S+[…] aminoguanidine) at 50000 cells/mL for 200 cells per well in 4 ul using a Thermo Multidrop Combi into a 1536-well white Aurora plate.
Ant44 is a cytotoxic polyamine, i.e., N^1-(9-anthracenyl)-homospermidine. A non-toxic PTI compound would block entry or intracellular trafficking of the Ant44 toxin and rescue the cells back to high viability. Therefore, this screen tested for compounds which rescued cells from Ant44 toxicity. […] This was followed by adding 10 uL of 10 uM Ant44 (FAC 2 uM) in assay medium with a Beckman BioRAPTR FRD dispenser or 10 uL of cells added in assay medium (positive control).

CHO cells [3] = assay: Cytotoxicity screen in CHO cells; details: for IC50 at 48 h: Chinese hamster, CHO K1 cells; for tox (DFMO Assay) / Tox (Ant44): toxic above the stated concentration; for tox (DFMO Assay): listed with DFMO assay; for Tox (Ant44): listed with Ant44 assay
Protocol: CHO K1 cells were grown in growth medium to 70% confluency and washed in PBS and trypsinized. […] Cells were spun at 100×g for 1 minute and incubated at 37° C. in a humidified CO2 incubator for 24 hours. […] Cellular ATP content was then assayed by adding 3 uL of ATPLite with a Beckman BioRAPTR FRD dispenser and incubated for 10 minutes at room temperature. Plates were spun at 200×g for 1 minute and read on a Perkin Elmer Viewlux multimode plate reader using luminescence mode. This assay was used for testing dose-response of dry powders.
CHO K1 cells were grown in growth medium to 70% confluency and washed in PBS and trypsinized. Cells were plated in assay medium at 10000 cells/mL for 200 cells per well using a Thermo Multidrop Combi in 20 uL into a white Greiner plate. Cells were spun at 100×g for 1 minute and incubated at 37° C. in a humidified CO2 incubator for 24 hours. […] This was followed by adding by 10 μL of assay medium to all wells with a Beckman BioRAPTR FRD dispenser. The plates were spun at 200×g for 1 minute and incubated at 37° C. in a humidified 5% CO2 incubator for 48 hours. Cellular ATP content was then assayed by adding 20 μL of ATPLite with a Beckman BioRAPTR FRD dispenser and incubated for 10 min at room temperature. Plates were spun at 200×g for 1 minute and read on a Perkin Elmer Envision for multimode plate reader using luminescence mode. Duplicates were run for each compound concentration, and the curves represent the average of the duplicates as percent viability.
The final compound concentration was either 20 μM or 10 μg/mL (depending upon the compound source). A successful PTI in Assay 1 would block the uptake of the toxic Ant44 probe and rescue the cells back to >90% relative growth vs an untreated control. It was critical to also evaluate the toxicity of the PTI by itself as a toxic PTI would give a false negative in Assay1 (and a false positive in Assay 2). […] Assay 2 then evaluated the ability of the compound to inhibit the uptake of a rescuing dose of Spermidine (Spd, 1 μM) into DFMO-treated CHO cells.

[4] = Cricetulus griseus, CHO, Table 7, read-out: SAR IC50 DFMO assay
[5] = Cricetulus griseus, Table 1 HTS top hits, CHO cells, read-out: DFMO Assay IC50
[6] = Table 1 HTS top hits, CHO cells
[7] = Table 1 HTS top hits, CHO cells, read-out: Ant44 EC50

SMILES	IC50 [1, 4] [µM]	IC50 (CHO cells [2]; CHO) [µM]	IC50 at 48 h (CHO cells [3]) [µM]	IC50 [1, 5] [µM]	tox (DFMO Assay) (CHO cells [3]; CHO cells)	further results
COc1ccccc1C(=O)Nc1ccc(N2CCN(Cc3ccccc3)CC2)cc1C(=O)O [SBI-0814414, 5-(4-benzylpiperazin-1-yl)-2-(2-methoxybenzamido)benzoic acid]	> 40	> 40	> 40	–	–	–
COc1ccccc1N1CCN(c2ccc(N3C(=O)CCC3=O)cc2[N+](=O)[O-])CC1 [SBI-0800661]	30	> 40	27	> 20	–	Ant44 EC50 (CHO cells [2]; [6]): SBI- 0800661.0001 No effect
COc1ccc(C(=O)Nc2ccc(N3CCC(C(N)=O)CC3)cc2C(=O)O)cc1 [SBI-0800693]	> 40	> 40	–	~10	SBI- 0800693.0001 (Ic50 ~10 μM, tox >10 μM)	Ant44 EC50 (CHO cells [2]; [6]): SBI- 0800693.0001 (NO EFFECT)
COc1ccc(C(=O)Nc2ccc(N3CCN(c4cc(Cl)ccc4C)CC3)c(C(=O)O)c2)cc1 [SBI-0800662]	5	> 40	14	~5	–	Ant44 EC50 (CHO cells [2]; [6]): SBI- 0800662.0001 No effect
COc1ccc(CC(=O)Nc2ccc(N3CCN(c4cc(Cl)ccc4C)CC3)cc2C(=O)O)cc1 [SBI-0754480]	–	32	24	5 to 10	> 20 µM	EC50 (CHO cells [2]; [7]): 31 µM
Cc1ccc(C(=O)Nc2ccc(N3CCN(c4cc(Cl)ccc4C)CC3)c(C(=O)O)c2)cc1 [SBI-0800669]	5	> 40	12	2 to 5	> 10 µM	Ant44 EC50 (CHO cells [2]; [6]): SBI- 0800669.0001 No effect
COC(=O)c1cc(N2CCN(c3cc(Cl)ccc3C)CC2)ccc1NC(=O)c1ccc(OC)cc1OC [SBI-0801723, methyl 5-(4-(5-chloro-2-methylphenyl)piperazin-1-yl)-2-(2,4-dimethoxybenzamido)benzoate]	> 40	> 40	> 40	–	–	–
COc1ccccc1C(=O)Nc1ccc(N2CCN(c3ccccn3)CC2)cc1 [SBI-0814417, 2-methoxy-N-(4-(4-(pyridin-2-yl)piperazin-1-yl)phenyl)benzamide]	> 40	> 40	14	–	–	–
COc1ccccc1N1CCN(c2ccc(NC(=O)c3cccs3)cc2C(=O)O)CC1 [SBI-0800666]	27	> 40	> 40	20 to 32	–	Ant44 EC50 (CHO cells [2]; [6]): SBI- 0800666.0001 No effect
COc1ccccc1C(=O)Nc1ccc(CN2CCN(c3ccccn3)CC2)cc1C(=O)O [SBI-0814423, 2-(2-Methoxybenzamido)-5-((4-(pyridin-2-yl)piperazin-1-yl)methyl)benzoic acid]	> 40	> 40	> 40	–	–	–
COc1ccc(C(=O)Nc2ccc(N3CCN(c4cc(Cl)ccc4C)CC3)cc2C(=O)O)c(OC)c1 [SBI-0801324, 5-(4-(5-chloro-2-methylphenyl)piperazin-1-yl)-2-(2,4-dimethoxybenzamido)benzoic acid]	> 40	> 40	> 40	–	Non tox	DFMO Assay IC40 ([1]; Table 1, CHO cells): 31 µM; EC50 (CHO cells [2]; [7]): 31 µM
COc1ccc(C(=O)Nc2ccc(N3CCN(c4ccc(OC)cc4)CC3)cc2C(=O)O)cc1 [SBI-0800680]	> 40	> 40	> 40	> 31	no tox	EC50 (CHO cells [2]; [7]): 31 µM; Tox (Ant44) (CHO cells [3]; CHO cells): ~5 µM
COc1ccc(C(=O)Nc2ccc(N3CCN(c4ccccc4)CC3)cc2C(=O)O)cc1 [SBI-0800679]	15	> 40	–	10 to 15	> 15 µM	activity in DFMO assay ([1]; CHO cells): active; EC50 ([1]; Cricetulus griseus, CHO, Table 2): 10 µM; IC50 ([1]; Cricetulus griseus, CHO, Table 4B, read-out: DFMO/CHO IC50): 15 µM; EC50 (CHO cells [2]; CHO, Table 2, Active in Ant44 assay?, read-out: Ant44 assay EC50 in CHO): > 10 µM; Ant44 EC40 (CHO cells [2]; Table 1, CHO cells): SBI- 0800679.0001 EC40 near 20 μM, Tox >20 μM); Active in Ant44 assay? (CHO cells [2]; Table 2, in CHO): Yes; Ant44 IC50 (CHO cells [2]; Table 4B, CHO cells): trace; general toxicity (CHO cells [3]; CHO cells): modest level of toxicity; CHO MTD (CHO cells [3]; hamster): 10 µM; CHO MTD EC50 (CHO cells [3]; hamster): (17) μM; Tox (Ant44) (CHO cells [3]; CHO cells): SBI- 0800679.0001 EC40 near 20 μM, Tox >20 μM)
Cc1ccc(C)c(N2CCN(c3ccc(N4C(=O)CC(c5ccccc5)C4=O)cc3[N+](=O)[O-])CC2)c1 (centres unmarked) [SBI-0372958]	27	–	32	–	–	–
COc1ccc(C(=O)Nc2ccc(N3CCN(c4cccc(C)c4C)CC3)cc2C(=O)O)cc1 [SBI-0800686]	–	–	–	~5	SBI- 0800686.0001 (IC50 ~5, tox >5) μM	EC50 (CHO cells [2]; [7]): ~10 µM; Tox (Ant44) (CHO cells [3]; CHO cells): SBI- 0800686.0001 Tox >10, EC50 near 10 μM
COc1ccccc1C(=O)Nc1ccc(N2CCN(c3cc(Cl)ccc3C)CC2)cc1C(=O)O [SBI-0351221, 5-(4-(5-chloro-2-methylphenyl)piperazin-1-yl)-2-(2-methoxybenzamido)benzoic acid]	21	2	19	~10	SBI- 0351221.0002 (IC50 ~10), toxic >10 μM	EC50 (CHO cells [2]; [7]): 10 µM; Tox (Ant44) (CHO cells [3]; CHO cells): SBI- 0351221.0002 (10 EC50) Tox >10 μM
Cc1cccc(N2CCN(c3ccc(NC(=O)c4ccccc4F)cc3C(=O)O)CC2C)c1 (centres unmarked) [SBI-0800663]	> 40	–	> 40	–	–	–
NCCC[C@](N)(C(=O)O)C(F)F [DFMO, alpha-difluoromethylornithine, reference compound]	–	–	–	–	–	IC50 (CHO cells [3]; Cricetulus griseus, CHO, 48 h, read-out: 48 h IC50): 4200 µM
COc1ccc(C(=O)Nc2ccc(N3CCC(N4CCCCC4)CC3)cc2C(=O)O)cc1 [SBI-0800694]	> 40	–	> 40	–	–	–
